# Laboratory results taken from patent EP4744649A1, “SUSTAINED-RELEASE INJECTABLE COMPOSITION FOR TREATING OR PREVENTING NEUROLOGICAL DISORDERS, AND METHOD FOR PREPARING SAME” (Inventage Lab Inc., priority 2023, dated 2025).
# Key:
# [1] = Body weight change in the PTZ seizure study; type: in vivo, rats; details: 60 mg/head IP (G2); difference not statistically significant
# Method: (§1) After the completion of acclimatization, the rats were divided into groups. On day 1 (D1), the test substances G1 to G4 were administered intraperitoneally and subcutaneously, and 30 minutes later, PTZ (pentylenetetrazole, Sigma, USA) dissolved in 0.9% sterile saline was administered intraperitoneally at a dose of 37.5 mg/kg to induce epileptic seizures. In the normal group, only the same amount of saline was administered. Then, PTZ was repeatedly administered at time points D2, D3, D5, D7, D14, D21, and D28 to induce epileptic seizures. The intensity of the seizures was graded and evaluated for 30 minutes immediately after PTZ administration at each time point according to the following criteria: [Table 7]
# During the test period, body weight continued to increase in all the groups without decrease.
# [2] = test system: PTZ-induced seizure rat model; assay: PTZ (pentylenetetrazole)-induced epileptic seizure model: seizure intensity, grade distribution, mortality; type: in vivo, rats; details: for seizure-induced mortality: 10 animals; for seizure intensity: 60 mg/head IP on D1 and D14 (G2)
# Method: In order to evaluate the seizure-suppressing effect of administration of the microparticles of the present invention in an epilepsy-induced model, administration groups were set up as follows.
# G3 and G4 were administered to rats at different doses using the above-described Example 7.
# as §1
smiles,measurement,setting,value
"C=C(C)[C@@H]1CCC(C)=C[C@H]1c1c(O)cc(CCCCC)cc1O [CBD solution, cannabidiol]",weight gain,[1],slightly smaller than that in the other groups
same,seizure-induced mortality,"[2]; 60 mg/head IP (G2), until week 3",no deaths occurred
same,seizure-induced mortality,"[2]; 60 mg/head IP (G2), week 4",three animals died
same,individuals with severe seizures,"[2]; 60 mg/head IP (G2), week 2, at the time of additional administration",10%
same,individuals with grade-5 seizures,"[2]; 60 mg/head IP (G2), week 4",more than half of individuals
same,seizure intensity,"[2]; day 1, stages 0 to 6",2.4 grade
same,seizure intensity,[2]; week 1,3.9 grade
same,seizure intensity,"[2]; week 2, after additional administration",2.9 grade
same,seizure intensity,[2]; weeks 3 and 4,4.9 grade
